Source: PubChem BioAssay AID248 (DTP/NCI, 2004)
“And” between values parts separate entries of the source, which are not always exact repeats. Identical values can stand only once. Inconclusive results and toxic doses are left out. No stated cut-off is given here; in the data, active means T/C of 150% or more; inactive means T/C below 125%.

System: L1210 leukemia ip in BDF1 mice, survival T/C
Assay: NCI In Vivo Anticancer Drug Screen. Data for tumor model L1210 Leukemia (intraperitoneal) in B6D2F1 (BDF1) mice
Details: endpoint: mean survival time, higher = longer survival
Procedure, shortened: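 Read-out is survival time, reported as the treated-group measurement over the vehicle-control measurement.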

[1] = dose: 100.0 mg/kg/injection, schedule: Q01DX001 (ip), vehicle: saline
[2] = dose: 200.0 mg/kg/injection, schedule: Q01DX001 (ip), vehicle: saline
[3] = dose: 400.0 mg/kg/injection, schedule: Q01DX001 (ip), vehicle: saline
[4] = dose: 100.0 mg/kg/injection, schedule: Q04DX002 (ip), vehicle: Klucel (hydroxypropylcellulose) (HPC)
[5] = dose: 200.0 mg/kg/injection, schedule: Q04DX002 (ip), vehicle: Klucel (hydroxypropylcellulose) (HPC)
[6] = dose: 100.0 mg/kg/injection, schedule: Q01DX009 (ip), vehicle: Klucel (hydroxypropylcellulose) (HPC)
[7] = dose: 200.0 mg/kg/injection, schedule: Q01DX009 (ip), vehicle: Klucel (hydroxypropylcellulose) (HPC)
[8] = dose: 400.0 mg/kg/injection, schedule: Q01DX009 (ip), vehicle: Klucel (hydroxypropylcellulose) (HPC)
[9] = dose: 100.0 mg/kg/injection, schedule: Q04DX003 (ip), vehicle: Klucel (hydroxypropylcellulose) (HPC)
[10] = dose: 200.0 mg/kg/injection, schedule: Q04DX003 (ip), vehicle: Klucel (hydroxypropylcellulose) (HPC)
[11] = dose: 400.0 mg/kg/injection, schedule: Q04DX003 (ip), vehicle: Klucel (hydroxypropylcellulose) (HPC)
[12] = dose: 100.0 mg/kg/injection, schedule: Q04DX003 (ip), vehicle: other
[13] = dose: 200.0 mg/kg/injection, schedule: Q04DX003 (ip), vehicle: other
[14] = dose: 400.0 mg/kg/injection, schedule: Q04DX003 (ip), vehicle: other

Measured: T/C

OCC1OC(O)C(O)C(O)C1O (stereo not drawn)
inactive: dose: 100.0 mg/kg/injection, schedule: Q01DX009 (ip), vehicle: saline 96 % of control | dose: 200.0 mg/kg/injection, schedule: Q01DX009 (ip), vehicle: saline 98 % of control | dose: 400.0 mg/kg/injection, schedule: Q01DX009 (ip), vehicle: saline 107 % of control | dose: 500.0 mg/kg/injection, schedule: Q01DX009 (ip), vehicle: saline 93 % of control | dose: 500.0 mg/kg/injection, schedule: Q04DX003 (ip), vehicle: saline 96 % of control | dose: 1000.0 mg/kg/injection, schedule: Q01DX009 (ip), vehicle: saline 90 % of control | dose: 1000.0 mg/kg/injection, schedule: Q04DX003 (ip), vehicle: saline 96 % of control | dose: 2000.0 mg/kg/injection, schedule: Q01DX009 (ip), vehicle: saline 106 % of control | dose: 2000.0 mg/kg/injection, schedule: Q04DX003 (ip), vehicle: saline 93 % of control | dose: 4000.0 mg/kg/injection, schedule: Q01DX009 (ip), vehicle: saline 102 % of control | dose: 4000.0 mg/kg/injection, schedule: Q04DX003 (ip), vehicle: saline 94 % of control

CC(C)CCCC(C)C1CCC2C3CC=C4CC(C5C(=O)NC(=O)NC5=O)CCC4(C)C3CCC12C (stereo not drawn)
inactive: dose: 12.5 mg/kg/injection, schedule: Q04DX003 (ip), vehicle: saline with Tween-80 96 % of control | dose: 25.0 mg/kg/injection, schedule: Q04DX003 (ip), vehicle: saline with Tween-80 96 % of control | dose: 50.0 mg/kg/injection, schedule: Q04DX003 (ip), vehicle: saline with Tween-80 87 % of control | dose: 400.0 mg/kg/injection, schedule: Q04DX003 (ip), vehicle: saline with Tween-80 88 % of control

O=C(Nc1ccccc1)NS(=O)(=O)CS(=O)(=O)NC(=O)Nc1ccccc1
inactive: [1] 104 % of control | [2] 102 % of control | [3] 109 % of control

CCCCCCCCP(C)(=O)CCCCCCCC
inactive: [4] 105 % of control | [5] 102 % of control

Cc1cccc2c(=O)c3ccccc3oc12
inactive: [1] 98 % of control and 104 % of control | [2] 95 % of control and 101 % of control | [3] 93 % of control and 97 % of control

CS(=O)(=O)OCc1c(O)c2c(c(O)c1COS(C)(=O)=O)C(=O)C=CC2=O
inactive: dose: 25.0 mg/kg/injection, schedule: Q01DX009 (ip), vehicle: water 94 % of control | dose: 50.0 mg/kg/injection, schedule: Q01DX009 (ip), vehicle: water 97 % of control

COC1OC(Cn2cc(-c3ccccc3)nn2)C(OC(C)=O)C(OC(C)=O)C1OC(C)=O (stereo not drawn)
inactive: dose: 100.0 mg/kg/injection, schedule: Q01DX005 (ip), vehicle: saline 100 % of control | dose: 200.0 mg/kg/injection, schedule: Q01DX005 (ip), vehicle: saline 96 % of control

NCCSCC(N)C(=O)O (stereo not drawn)
inactive: dose: 100.0 mg/kg/injection, schedule: Q04DX002 (ip), vehicle: saline 92 % of control | dose: 200.0 mg/kg/injection, schedule: Q04DX002 (ip), vehicle: saline 92 % of control | dose: 400.0 mg/kg/injection, schedule: Q04DX002 (ip), vehicle: saline 109 % of control

COc1cc2nc3cc(Nc4ccccc4)c(=O)c(C(C)=O)c-3n(CCN3CCOCC3)c2cc1OC
inactive: [4] 90 % of control | [5] 87 % of control | dose: 400.0 mg/kg/injection, schedule: Q04DX002 (ip), vehicle: Klucel (hydroxypropylcellulose) (HPC) 107 % of control

Fc1ccc(NC(=S)SCc2ccc(Cl)c(Cl)c2)cc1F
inactive: dose: 50.0 mg/kg/injection, schedule: Q01DX009 (ip), vehicle: saline with Tween-80 108 % of control | dose: 100.0 mg/kg/injection, schedule: Q04DX003 (ip), vehicle: saline with Tween-80 102 % of control | dose: 200.0 mg/kg/injection, schedule: Q01DX009 (ip), vehicle: saline with Tween-80 112 % of control | dose: 200.0 mg/kg/injection, schedule: Q04DX003 (ip), vehicle: saline with Tween-80 106 % of control

COc1ccc(NC(=O)Oc2ccccc2C(N)=O)c(Cl)c1
inactive: [4] 96 % of control | [5] 104 % of control

COc1cc(N(CCCl)CCCl)c(OC)cc1/C=N\Nc1nncn1N
inactive: dose: 1.2 mg/kg/injection, schedule: Q01DX015 (ip), vehicle: carboxymethylcellulose (CMC) 109 % of control | dose: 1.4 mg/kg/injection, schedule: Q01DX015 (ip), vehicle: carboxymethylcellulose (CMC) 105 % of control | dose: 2.2 mg/kg/injection, schedule: Q01DX015 (ip), vehicle: carboxymethylcellulose (CMC) 107 % of control | dose: 2.5 mg/kg/injection, schedule: Q01DX015 (ip), vehicle: carboxymethylcellulose (CMC) 109 % of control | dose: 3.3 mg/kg/injection, schedule: Q01DX015 (ip), vehicle: carboxymethylcellulose (CMC) 110 % of control | dose: 15.0 mg/kg/injection, schedule: Q01DX015 (ip), vehicle: carboxymethylcellulose (CMC) 96 % of control and 103 % of control | dose: 33.0 mg/kg/injection, schedule: Q01DX001 (ip), vehicle: carboxymethylcellulose (CMC) 124 % of control | dose: 100.0 mg/kg/injection, schedule: Q01DX001 (ip), vehicle: carboxymethylcellulose (CMC) 105 % of control

CCCCS(=O)(=O)OCCCCOS(=O)(=O)CCCC
inactive: dose: 240.0 mg/kg/injection, schedule: Q01DX Z (ip), vehicle: saline 100 % of control | dose: 360.0 mg/kg/injection, schedule: Q01DX Z (ip), vehicle: saline 115 % of control | dose: 810.0 mg/kg/injection, schedule: Q01DX Z (ip), vehicle: saline 90 % of control

O=C(CCl)Nc1ccc(O)c2ccccc12
inactive: dose: 75.0 mg/kg/injection, schedule: Q01DX001 (ip), vehicle: other 102 % of control | dose: 150.0 mg/kg/injection, schedule: Q01DX001 (ip), vehicle: other 91 % of control

CCCCNC(C)(C)CO
inactive: dose: 12.5 mg/kg/injection, schedule: Q01DX009 (ip), vehicle: saline 106 % of control | dose: 12.5 mg/kg/injection, schedule: Q04DX003 (ip), vehicle: saline 100 % of control | dose: 25.0 mg/kg/injection, schedule: Q01DX009 (ip), vehicle: saline 112 % of control | dose: 25.0 mg/kg/injection, schedule: Q04DX003 (ip), vehicle: saline 97 % of control | dose: 50.0 mg/kg/injection, schedule: Q01DX009 (ip), vehicle: saline 109 % of control | dose: 50.0 mg/kg/injection, schedule: Q04DX003 (ip), vehicle: saline 102 % of control | dose: 75.0 mg/kg/injection, schedule: Q01DX009 (ip), vehicle: saline 105 % of control

Cc1cc([N+](=O)[O-])c(NCCOC(=O)c2ccc([N+](=O)[O-])cc2)c([N+](=O)[O-])c1
inactive: [6] 106 % of control | [7] 112 % of control | [8] 98 % of control

Nc1cc([N+](=O)[O-])ccc1Cl
inactive: [6] 99 % of control | [9] 102 % of control | [7] 101 % of control | [10] 102 % of control | [11] 103 % of control

O=C(NCCCl)NC(Cc1ccccc1)Cc1ccccc1
inactive: [9] 95 % of control | [10] 91 % of control | [11] 95 % of control

CCC(=O)N(CC)CC
inactive: dose: 50.0 mg/kg/injection, schedule: Q01DX001 (ip), vehicle: saline 102 % of control | [1] 93 % of control | [3] 93 % of control

COc1ccc(NC2=CC(=O)N(c3ccc(OC)cc3)C2=O)cc1
inactive: [12] 86 % of control | [13] 98 % of control | [14] 98 % of control

COC(=O)/C=C/Nc1ccccc1
inactive: [12] 98 % of control | [13] 98 % of control | [14] 94 % of control

CCc1cc2c(cc1/C(C)=N/N=C(\C)c1cc3c(cc1CC)C(C)(C)CCC3(C)C)C(C)(C)CCC2(C)C
inactive: [6] 97 % of control | [7] 89 % of control | [8] 93 % of control

ClCCC[Si](Cl)(Cl)Cl
inactive: dose: 75.0 mg/kg/injection, schedule: Q01DX001 (ip), vehicle: saline 109 % of control | dose: 150.0 mg/kg/injection, schedule: Q01DX001 (ip), vehicle: saline 107 % of control | dose: 300.0 mg/kg/injection, schedule: Q01DX001 (ip), vehicle: saline 100 % of control

Cc1ccccc1NC(N)=O
inactive: [9] 110 % of control | [10] 105 % of control | [11] 103 % of control
